This passage reports Ki results from ChEMBL document CHEMBL5729305, “Compounds, salts thereof and methods for treatment of diseases” (2022).

pKi: −log10 of the molar value.

The test concerns the target 5-hydroxytryptamine receptor 2A (Homo sapiens, UniProt P28223). As to the kind of experiment: Receptor Selection and Amplification (R-SAT) Assays: R-SAT's were generally performed with 50 ng/well of receptor and 20 ng/well of β-galactosidase plasmid DNA. All receptor constructs used were in the pSI mammalian expression vector (Promega Inc) as described previously. The 5-HT2A receptor gene was amplified by nested PCR (polymerase chain reaction) from brain cDNA using the …. The class given is cell-based.

Chain of 5-hydroxytryptamine receptor 2A (P28223 whole entry): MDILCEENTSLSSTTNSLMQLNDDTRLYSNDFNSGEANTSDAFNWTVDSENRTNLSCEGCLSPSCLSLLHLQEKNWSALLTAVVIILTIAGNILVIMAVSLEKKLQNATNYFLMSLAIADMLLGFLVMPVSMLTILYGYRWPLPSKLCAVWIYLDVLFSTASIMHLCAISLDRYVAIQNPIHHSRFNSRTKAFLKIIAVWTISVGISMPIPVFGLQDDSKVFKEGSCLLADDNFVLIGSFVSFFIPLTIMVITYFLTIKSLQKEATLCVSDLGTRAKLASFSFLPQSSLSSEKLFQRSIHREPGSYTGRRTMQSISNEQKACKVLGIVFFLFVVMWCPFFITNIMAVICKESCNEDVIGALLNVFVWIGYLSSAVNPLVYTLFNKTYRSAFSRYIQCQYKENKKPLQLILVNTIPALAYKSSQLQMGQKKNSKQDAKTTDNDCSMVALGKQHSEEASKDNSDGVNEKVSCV

In turn, `CC(C)Oc1ccc(CC(=O)N(Cc2ccc(F)cc2F)[C@@H]2CCN(C)C[C@@H]2F)cc1` (mixture of isomers) had a pKi of 8.00.
